Assay results published in patent US10112939B2, “Tied-back benzamide derivatives as potent rock inhibitors” (Bristol-Myers Squibb Company, priority 2014, dated 2018).
Where “and” joins values, the source holds several entries; their conditions need not be identical. Identical values can stand only once. Like-named read-outs stand apart in the source and are kept apart here.

Biological target: ROCK2 (Homo sapiens (Human), UniProt O75116)
Assay: ROCK assay (peptide substrate phosphorylation, LABCHIP 3000 Reader)
Type: biochemical
Protocol: Compounds were dissolved in DMSO so that the final concentration of DMSO was <2%, and the reaction was initiated with Rho kinase variants. After incubation, the reaction was terminated by the addition of EDTA and the phosphorylated and non-phosphorylated peptides separated using a LABCHIP® 3000 Reader (Caliper Life Sciences). […] Compounds were tested in dose-response format, and the inhibition of kinase activity was calculated at each concentration of compound.

[1] = 5 μM ATP, 1.5 μM peptide substrate

Chain of ROCK2 (O75116 whole entry, species assumed): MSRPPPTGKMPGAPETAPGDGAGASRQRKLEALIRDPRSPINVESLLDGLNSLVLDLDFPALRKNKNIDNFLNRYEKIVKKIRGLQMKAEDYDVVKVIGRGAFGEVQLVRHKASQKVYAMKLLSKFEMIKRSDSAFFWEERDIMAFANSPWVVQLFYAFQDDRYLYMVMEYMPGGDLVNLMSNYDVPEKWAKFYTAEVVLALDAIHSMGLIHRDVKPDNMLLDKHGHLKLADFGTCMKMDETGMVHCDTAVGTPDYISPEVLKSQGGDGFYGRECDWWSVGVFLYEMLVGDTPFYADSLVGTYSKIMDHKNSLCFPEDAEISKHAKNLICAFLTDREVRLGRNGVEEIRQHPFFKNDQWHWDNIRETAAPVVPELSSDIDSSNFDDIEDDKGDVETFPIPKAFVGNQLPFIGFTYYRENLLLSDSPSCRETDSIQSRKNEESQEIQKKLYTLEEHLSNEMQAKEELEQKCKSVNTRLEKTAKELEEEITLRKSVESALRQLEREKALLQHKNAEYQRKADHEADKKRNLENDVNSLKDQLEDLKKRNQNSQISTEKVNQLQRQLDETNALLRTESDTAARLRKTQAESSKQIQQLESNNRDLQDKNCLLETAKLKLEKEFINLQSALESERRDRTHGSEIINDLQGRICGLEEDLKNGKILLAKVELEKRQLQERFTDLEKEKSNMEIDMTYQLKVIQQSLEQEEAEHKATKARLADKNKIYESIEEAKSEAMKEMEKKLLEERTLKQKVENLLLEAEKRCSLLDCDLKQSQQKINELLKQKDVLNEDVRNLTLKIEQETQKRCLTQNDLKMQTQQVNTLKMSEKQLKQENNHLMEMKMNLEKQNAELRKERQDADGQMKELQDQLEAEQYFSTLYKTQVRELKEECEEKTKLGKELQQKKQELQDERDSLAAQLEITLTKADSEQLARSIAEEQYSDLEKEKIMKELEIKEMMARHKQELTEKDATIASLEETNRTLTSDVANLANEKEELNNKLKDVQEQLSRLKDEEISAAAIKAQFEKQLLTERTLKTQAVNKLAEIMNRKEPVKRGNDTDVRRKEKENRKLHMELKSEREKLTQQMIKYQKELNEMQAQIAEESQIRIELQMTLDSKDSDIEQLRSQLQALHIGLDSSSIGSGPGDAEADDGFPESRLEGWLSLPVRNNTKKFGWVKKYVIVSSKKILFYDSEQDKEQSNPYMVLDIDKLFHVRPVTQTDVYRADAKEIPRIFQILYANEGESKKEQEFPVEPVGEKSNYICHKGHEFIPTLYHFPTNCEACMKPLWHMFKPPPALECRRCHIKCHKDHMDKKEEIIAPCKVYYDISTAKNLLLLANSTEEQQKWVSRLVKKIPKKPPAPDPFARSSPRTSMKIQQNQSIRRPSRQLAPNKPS

COc1cc(C(=O)N2CCCC2c2cccc(-c3cnn(CC(C)(C)O)c3)c2)ccc1-c1cn[nH]c1 (stereo not drawn) [Example 74, 1-[4-(3-{1-[3-methoxy-4-(1H-pyrazol-4-yl)benzoyl]pyrrolidin-2-yl}phenyl)-1H-pyrazol-1-yl]-2-methylpropan-2-ol]
IC50 [1]: 901 nM

COc1cc(C(=O)N2CCCC2c2cccc(-c3c(C)noc3C)c2)ccc1-c1cn[nH]c1 (stereo not drawn) [Example 75, 4-(3-{1-[3-methoxy-4-(1H-pyrazol-4-yl)benzoyl]pyrrolidin-2-yl}phenyl)-3,5-dimethyl-1,2-oxazole]
IC50 [1]: 1570 nM

COc1cc(C(=O)N2CCCC2c2cccc(-c3ccoc3)c2)ccc1-c1cn[nH]c1 (stereo not drawn) [Example 76, 4-(4-{2-[3-(furan-3-yl)phenyl]pyrrolidine-1-carbonyl}-2-methoxyphenyl)-1H-pyrazole]
IC50 [1]: 320 nM

COc1cc(C(=O)N2CCCC2c2cccc(-c3ccn[nH]3)c2)ccc1-c1cn[nH]c1 (stereo not drawn) [Example 77, 4-(2-methoxy-4-{2-[3-(1H-pyrazol-5-yl)phenyl]pyrrolidine-1-carbonyl}phenyl)-1H-pyrazole]
IC50 [1]: 887 nM

COc1cc(C(=O)N2CC(F)C[C@@H]2c2cccc(C(=O)NC3CC3)c2)ccc1-c1cn[nH]c1 (stereo partly drawn) [Example 78, N-Cyclopropyl-3-[(2R)-4-fluoro-1-[3-methoxy-4-(1H-pyrazol-4-yl)benzoyl]pyrrolidin-2-yl]benzamide]
IC50 [1]: 4.7 nM

COc1cc(C(=O)N2CC(F)(F)C[C@@H]2c2cccc(C(=O)NC3CC3)c2)ccc1-c1ccncc1 [Example 79, N-Cyclopropyl-3-[(2R)-4,4-difluoro-1-[3-methoxy-4-(pyridin-4-yl)benzoyl]pyrrolidin-2-yl]benzamide]
IC50 [1]: 24.3 nM

COc1cc(C(=O)N2CC(F)(F)C[C@@H]2c2cccc(C(=O)NC3CC3)c2)ccc1-c1cn[nH]c1 [Example 80, N-Cyclopropyl-3-[(2R)-4,4-difluoro-1-[3-methoxy-4-(1H-pyrazol-4-yl)benzoyl]pyrrolidin-2-yl]benzamide]
IC50 [1]: 5.4 nM

COc1cccc(C2CCCN2C(=O)c2ccc(-c3ccnc(N)c3)c(OC)c2)c1 (stereo not drawn) [Example 81, 4-{2-Methoxy-4-[2-(3-methoxyphenyl)pyrrolidine-1-carbonyl]phenyl} pyridin-2-amine]
IC50 [1]: 158 nM

COc1cccc(C2CCCN2C(=O)c2ccc(-c3ccnc4[nH]ccc34)c(OC)c2)c1 (stereo not drawn) [Example 82, 1-(3-methoxy-4-{1H-pyrrolo[2,3-b]pyridin-4-yl}benzoyl)-2-(3-methoxyphenyl) pyrrolidine]
IC50 [1]: 56.8 nM

COc1cccc(C2CCCN2C(=O)c2ccc(-c3ccnc(F)c3)c(OC)c2)c1 (stereo not drawn) [Example 83, 2-fluoro-4-{2-methoxy-4-[2-(3-methoxyphenyl)pyrrolidine-1-carbonyl]phenyl}pyridine]
IC50 [1]: 153 nM

COc1cccc(C2CCCN2C(=O)c2ccc(-c3ccncc3F)c(OC)c2)c1 (stereo not drawn) [Example 84, 3-fluoro-4-{2-methoxy-4-[2-(3-methoxyphenyl)pyrrolidine-1-carbonyl]phenyl}pyridine]
IC50 [1]: 24.1 nM

COc1cc(C(=O)N2CC(OC)C[C@@H]2c2cccc(C(=O)NCC3CC3)c2)ccc1-c1cn[nH]c1 (stereo partly drawn) [Example 86, N-(Cyclopropylmethyl)-3-[(2R)-4-methoxy-1-[3-methoxy-4-(1H-pyrazol-4-yl)benzoyl]pyrrolidin-2-yl]benzamide]
IC50 [1]: 5.42 nM

COc1cc(C(=O)N2CC(OC)C[C@@H]2c2cccc(C(=O)N(C)CC3CC3)c2)ccc1-c1cn[nH]c1 (stereo partly drawn) [Example 87, N-(Cyclopropylmethyl)-3-[(2R)-4-methoxy-1-[3-methoxy-4-(1H-pyrazol-4-yl)benzoyl]pyrrolidin-2-yl]-N-methylbenzamide]
IC50 [1]: 461 nM

COc1cc(C(=O)N2C[C@](C)(O)C[C@@H]2c2cccc(C(=O)NCC3CC3)c2)ccc1-c1cn[nH]c1 [Example 88, N-(Cyclopropylmethyl)-3-[(2R,4R)-4-hydroxy-1-[3-methoxy-4-(1H-pyrazol-4-yl)benzoyl]-4-methylpyrrolidin-2-yl]benzamide]
IC50 [1]: 10.6 nM

COc1cc(C(=O)N2CC(OC(C)=O)C[C@@H]2c2cccc(S(C)(=O)=O)c2)ccc1-c1cn[nH]c1 (stereo partly drawn) [Example 89, (5R)-5-(3-Methanesulfonylphenyl)-1-[3-methoxy-4-(1H-pyrazol-4-yl)benzoyl]pyrrolidin-3-yl acetate]
IC50 [1]: 784 nM

COc1cc(C(=O)N2CC(O)C[C@@H]2c2cccc(S(C)(=O)=O)c2)ccc1-c1cn[nH]c1 (stereo partly drawn) [Example 90, (5R)-5-(3-Methanesulfonylphenyl)-1-[3-methoxy-4-(1H-pyrazol-4-yl)benzoyl]pyrrolidin-3-ol]
IC50 [1]: 86 nM

COc1cc(C(=O)N2C[C@H](O)C[C@@H]2c2ccccc2F)ccc1-c1cn[nH]c1 [Example 92, (3R,5R)-5-(2-Fluorophenyl)-1-[3-methoxy-4-(1H-pyrazol-4-yl)benzoyl] pyrrolidin-3-ol]
IC50 [1]: 8.03 nM

COc1cc(C(=O)N2C[C@@H](O)C[C@@H]2c2ccccc2F)ccc1-c1cn[nH]c1 [Example 93, (3S,5R)-5-(2-Fluorophenyl)-1-[3-methoxy-4-(1H-pyrazol-4-yl)benzoyl] pyrrolidin-3-ol]
IC50 [1]: 4.52 nM

O=C(c1ccc(-c2cn[nH]c2)c(OC(F)F)c1)N1C[C@H](O)C[C@@H]1c1ccccc1F [Example 94, (3R,5R)-1-[3-(Difluoromethoxy)-4-(1H-pyrazol-4-yl)benzoyl]-5-(2-fluorophenyl)pyrrolidin-3-ol]
IC50 [1]: 73.3 nM

O=C(c1ccc(-c2cn[nH]c2)c(OC(F)F)c1)N1C[C@@H](O)C[C@@H]1c1ccccc1F [Example 95, (3S,5R)-1-[3-(Difluoromethoxy)-4-(1H-pyrazol-4-yl)benzoyl]-5-(2-fluorophenyl)pyrrolidin-3-ol]
IC50 [1]: 44.1 nM and 28.4 nM

N#Cc1cc(C(=O)N2C[C@H](O)C[C@@H]2c2ccccc2F)ccc1-c1cn[nH]c1 [Example 96, 5-[(2R,4R)-2-(2-Fluorophenyl)-4-hydroxypyrrolidine-1-carbonyl]-2-(1H-pyrazol-4-yl)benzonitrile]
IC50: 667 nM

N#Cc1cc(C(=O)N2C[C@H](O)C[C@@H]2c2ccccc2F)ccc1-c1cn[nH]c1 [Example 97, 5-[(2R)-2-(2-Fluorophenyl)-4-hydroxypyrrolidine-1-carbonyl]-2-(1H-pyrazol-4-yl)benzonitrile]
IC50 [1]: 721 nM

COc1cc(-c2cn[nH]c2)ccc1C(=O)N1C[C@H](O)C[C@@H]1c1ccccc1F [Example 98, (3R,5R)-5-(2-Fluorophenyl)-1-[2-methoxy-4-(1H-pyrazol-4-yl)benzoyl] pyrrolidin-3-ol]
IC50 [1]: 723 nM

CS(=O)(=O)c1cccc([C@H]2CC(O)CN2C(=O)c2ccc(-c3ccnc4[nH]ccc34)cc2)c1 (stereo partly drawn) [Example 99, (5R)-5-(3-methanesulfonyl-phenyl)-1-(4-{1H-pyrrolo [2,3-b]pyridin-4-yl}benzoyl) pyrrolidin-3-ol]
IC50 [1]: 614 nM

COc1cccc(C2CCCN2C(=O)c2ccc(-c3cn[nH]c3)c(C(C)O)c2)c1 (stereo not drawn) [Example 100, 1-{5-[2-(3-Methoxyphenyl)pyrrolidine-1-carbonyl]-2-(1H-pyrazol-4-yl)phenyl}ethan-1-ol]
IC50 [1]: 228 nM

CCc1cc(C(=O)N2CC(O)C[C@@H]2c2ccccc2F)ccc1-c1cn[nH]c1 (stereo partly drawn) [Example 101, (5R)-1-[3-Ethyl-4-(1H-pyrazol-4-yl)benzoyl]-5-(2-fluorophenyl) pyrrolidin-3-ol]
IC50 [1]: 65.1 nM

COc1cc(C(=O)N2CCCC2c2cccc(OCC(F)F)c2)ccc1-c1cn[nH]c1 (stereo not drawn) [Example 102, 4-(4-{2-[3-(2,2-Difluoroethoxy)phenyl]pyrrolidine-1-carbonyl}-2-methoxyphenyl)-1H-pyrazole]
IC50 [1]: 411 nM

COc1cc(C(=O)N2CCCC2c2cccc(OCc3cc(C)on3)c2)ccc1-c1cn[nH]c1 (stereo not drawn) [Example 103, 3-(3-{1-[3-Methoxy-4-(1H-pyrazol-4-yl)benzoyl]pyrrolidin-2-yl}phenoxymethyl)-5-methyl-1,2-oxazole]
IC50 [1]: 62 nM

COc1cc(C(=O)N2CCCC2c2cccc(OC3CCN(C)CC3)c2)ccc1-c1cn[nH]c1 (stereo not drawn) [Example 104, 4-(3-{1-[3-Methoxy-4-(1H-pyrazol-4-yl)benzoyl]pyrrolidin-2-yl}phenoxy)-1-methylpiperidine]
IC50 [1]: 1390 nM

COc1cc(C(=O)N2CCCC2c2cccc(NC3CCN(C)CC3)c2)ccc1-c1cn[nH]c1 (stereo not drawn) [Example 105, N-(3-{1-[3-Methoxy-4-(1H-pyrazol-4-yl)benzoyl]pyrrolidin-2-yl}phenyl)-1-methylpiperidin-4-amine]
IC50 [1]: 278 nM

COc1cc(C(=O)N2C[C@@H](N)C[C@@H]2c2ccccc2F)ccc1-c1cn[nH]c1 [Example 106, (3S,5R)-5-(2-Fluorophenyl)-1-[3-methoxy-4-(1H-pyrazol-4-yl)benzoyl] pyrrolidin-3-amine]
IC50 [1]: 0.87 nM

COc1cc(C(=O)N2C[C@H](N)C[C@@H]2c2ccccc2F)ccc1-c1cn[nH]c1 [Example 107, (3R,5R)-5-(2-Fluorophenyl)-1-[3-methoxy-4-(1H-pyrazol-4-yl)benzoyl] pyrrolidin-3-amine]
IC50 [1]: 1.65 nM

COc1cc(C(=O)N2CC(O)C[C@@H]2c2ccc3cn[nH]c3c2)ccc1-c1cn[nH]c1 (stereo partly drawn) [Example 108, (5R)-5-(1H-Indazol-6-yl)-1-[3-methoxy-4-(1H-pyrazol-4-yl)benzoyl] pyrrolidin-3-ol]
IC50 [1]: 7.65 nM

COc1cc(C(=O)N2CC(O)C[C@@H]2c2ccc3c(I)n[nH]c3c2)ccc1-c1cn[nH]c1 (stereo partly drawn) [Example 109, (5R)-5-(3-Iodo-1H-indazol-6-yl)-1-[3-methoxy-4-(1H-pyrazol-4-yl)benzoyl]pyrrolidin-3-ol]
IC50 [1]: 902 nM

COc1cc(C(=O)N2CCC[C@@H]2C(=O)Nc2ccccc2)ccc1-c1cn[nH]c1 [Example 110, (2R)-1-[3-Methoxy-4-(1H-pyrazol-4-yl)benzoyl]-N-phenylpyrrolidine-2-carboxamide]
IC50 [1]: 463 nM

COc1cc(C(=O)N2CCC[C@@H]2C(=O)N2CCc3ccccc32)ccc1-c1cn[nH]c1 [Example 111, 1-[(2R)-1-[3-Methoxy-4-(1H-pyrazol-4-yl)benzoyl]pyrrolidine-2-carbonyl]-2,3-dihydro-1H-indole]
IC50: 504 nM
